Data taken from ChEMBL document CHEMBL1201861, “Genomics of Drug Sensitity in Cancer screening data, Wellcome Trust Sanger Institute”.

Each compound was assayed on NB12 (assay: cells). Settings: Homo sapiens.
Assay type: functional, cell-based
Description: SANGER: Inhibition of human NB12 cell growth in a cell viability assay.

Question: How did the IC50 turn out when CN(NC(=O)CC(=O)NN(C)C(=S)c1ccccc1)C(=S)c1ccccc1 [ELESCLOMOL] was run?
Answer: 48 nM

What follows are compounds tested on NCI-H1666 (assay: cells). Settings: Homo sapiens.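 Also: growth inhibition of the cell line, read out with a cell viability assay.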
Assay type: functional, cell-based
Description: SANGER: Inhibition of human NCI-H1666 cell growth in a cell viability assay.

Question: Which IC50 does the source give for CN(NC(=O)CC(=O)NN(C)C(=S)c1ccccc1)C(=S)c1ccccc1 [ELESCLOMOL] here?
Answer: > 200 nM

What follows are compounds tested on LCLC-97TM1 (assay: cells). Settings: Homo sapiens.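 Also: cell viability assay measuring growth inhibition of human LCLC-97TM1 cells.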
Assay type: functional, cell-based
Description: SANGER: Inhibition of human LCLC-97TM1 cell growth in a cell viability assay.

Question: How did the IC50 turn out when CN(NC(=O)CC(=O)NN(C)C(=S)c1ccccc1)C(=S)c1ccccc1 [ELESCLOMOL] was run?
Answer: > 200 nM

The compounds below were run on Detroit 562 (assay: cells). Settings: Homo sapiens.
Assay type: functional, cell-based
Description: SANGER: Inhibition of human Detroit562 cell growth in a cell viability assay.

Question: With CN(NC(=O)CC(=O)NN(C)C(=S)c1ccccc1)C(=S)c1ccccc1 [ELESCLOMOL] as the compound, how does the IC50 read?
Answer: 68.9 nM

These compounds were tested on TGBC11TKB (assay: cells). Settings: Homo sapiens.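 Also: growth inhibition of human TGBC11TKB cells, measured by a cell viability assay.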
Assay type: functional, cell-based
Description: SANGER: Inhibition of human TGBC11TKB cell growth in a cell viability assay.

Question: CN(NC(=O)CC(=O)NN(C)C(=S)c1ccccc1)C(=S)c1ccccc1 [ELESCLOMOL] was tested. Which IC50 did it give?
Answer: > 200 nM

Each compound was assayed on COR-L23 (assay: cells). Settings: Homo sapiens.
Assay type: functional, cell-based
Description: SANGER: Inhibition of human COR-L23 cell growth in a cell viability assay.

Question: For CN(NC(=O)CC(=O)NN(C)C(=S)c1ccccc1)C(=S)c1ccccc1 [ELESCLOMOL], which IC50 is on record?
Answer: > 200 nM

Each compound was assayed on EW-24 (assay: cells). Settings: Homo sapiens, EW-24.
Assay type: functional, cell-based, Homo sapiens
Description: SANGER: Inhibition of human EW-24 cell growth in a cell viability assay.

Question: CN(NC(=O)CC(=O)NN(C)C(=S)c1ccccc1)C(=S)c1ccccc1 [ELESCLOMOL] was tested. Which IC50 did it give?
Answer: 3.83 nM

The compounds below were run on COLO-741 (assay: cells). Settings: Homo sapiens.
Assay type: functional, cell-based
Description: SANGER: Inhibition of human COLO-741 cell growth in a cell viability assay.

Question: With CN(NC(=O)CC(=O)NN(C)C(=S)c1ccccc1)C(=S)c1ccccc1 [ELESCLOMOL] as the compound, how does the IC50 read?
Answer: 176 nM

What follows are compounds tested on LoVo (assay: cells). Settings: Homo sapiens.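 Also: growth inhibition of human LoVo cells, read out with a cell viability assay.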
Assay type: functional, cell-based
Description: SANGER: Inhibition of human LoVo cell growth in a cell viability assay.

Question: For CN(NC(=O)CC(=O)NN(C)C(=S)c1ccccc1)C(=S)c1ccccc1 [ELESCLOMOL], which IC50 is on record?
Answer: 78.6 nM

These compounds were tested on PC-14 (assay: cells). Settings: Homo sapiens.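 Also: cell viability assay measuring inhibition of PC-14 cell growth.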
Assay type: functional, cell-based
Description: SANGER: Inhibition of human PC-14 cell growth in a cell viability assay.

Question: How did the IC50 turn out when CN(NC(=O)CC(=O)NN(C)C(=S)c1ccccc1)C(=S)c1ccccc1 [ELESCLOMOL] was run?
Answer: 24.7 nM

These compounds were tested on D-392MG (assay: cells). Settings: Homo sapiens.
Assay type: functional, cell-based

Question: With CN(NC(=O)CC(=O)NN(C)C(=S)c1ccccc1)C(=S)c1ccccc1 [ELESCLOMOL] as the compound, how does the IC50 read?
Answer: 78.7 nM

What follows are compounds tested on RERF-LC-MS (assay: cells). Settings: Homo sapiens.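 Also: growth inhibition of human RERF-LC-MS cells, read out by a cell viability assay.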
Assay type: functional, cell-based
Description: SANGER: Inhibition of human RERF-LC-MS cell growth in a cell viability assay.

Question: How did the IC50 turn out when CN(NC(=O)CC(=O)NN(C)C(=S)c1ccccc1)C(=S)c1ccccc1 [ELESCLOMOL] was run?
Answer: 8.58 nM

What follows are compounds tested on CFPAC-1 (assay: cells). Settings: Homo sapiens.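 Also: cell viability readout used to gauge suppression of CFPAC-1 cell proliferation.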
Assay type: functional, cell-based
Description: SANGER: Inhibition of human CFPAC-1 cell growth in a cell viability assay.

Question: How did the IC50 turn out when CN(NC(=O)CC(=O)NN(C)C(=S)c1ccccc1)C(=S)c1ccccc1 [ELESCLOMOL] was run?
Answer: > 200 nM

These compounds were tested on BEN (assay: cells). Settings: Homo sapiens.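 Also: growth inhibition of the BEN cell line, read out with a cell viability assay.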
Assay type: functional, cell-based
Description: SANGER: Inhibition of human BEN cell growth in a cell viability assay.

Question: CN(NC(=O)CC(=O)NN(C)C(=S)c1ccccc1)C(=S)c1ccccc1 [ELESCLOMOL] was tested. Which IC50 did it give?
Answer: 116 nM

These compounds were tested on NCI-H2291 (assay: cells). Settings: Homo sapiens.
Assay type: functional, cell-based
Description: SANGER: Inhibition of human NCI-H2291 cell growth in a cell viability assay.

Question: How did the IC50 turn out when CN(NC(=O)CC(=O)NN(C)C(=S)c1ccccc1)C(=S)c1ccccc1 [ELESCLOMOL] was run?
Answer: > 200 nM

The compounds below were run on HMV-2 cell line (assay: cells). Settings: Homo sapiens.
Assay type: functional, cell-based
Description: SANGER: Inhibition of human HMV-II cell growth in a cell viability assay.

Question: Which IC50 does the source give for CN(NC(=O)CC(=O)NN(C)C(=S)c1ccccc1)C(=S)c1ccccc1 [ELESCLOMOL] here?
Answer: > 200 nM

These compounds were tested on TCC-SUP (assay: cells). Settings: Homo sapiens.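 Also: growth inhibition of TCC-SUP cells, read out with a cell viability assay.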
Assay type: functional, cell-based
Description: SANGER: Inhibition of human TCCSUP cell growth in a cell viability assay.

Question: With CN(NC(=O)CC(=O)NN(C)C(=S)c1ccccc1)C(=S)c1ccccc1 [ELESCLOMOL] as the compound, how does the IC50 read?
Answer: 13.5 nM

What follows are compounds tested on CHP-212 (assay: cells). Settings: Homo sapiens.
Assay type: functional, cell-based
Description: SANGER: Inhibition of human CHP-212 cell growth in a cell viability assay.

Question: CN(NC(=O)CC(=O)NN(C)C(=S)c1ccccc1)C(=S)c1ccccc1 [ELESCLOMOL] was tested. Which IC50 did it give?
Answer: 7.34 nM

These compounds were tested on EFO-21 (assay: cells). Settings: Homo sapiens.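 Also: growth inhibition of EFO-21 cells measured with a viability assay.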
Assay type: functional, cell-based
Description: SANGER: Inhibition of human EFO-21 cell growth in a cell viability assay.

Question: For CN(NC(=O)CC(=O)NN(C)C(=S)c1ccccc1)C(=S)c1ccccc1 [ELESCLOMOL], which IC50 is on record?
Answer: 149 nM

Each compound was assayed on NCI-H1792 (assay: cells). Settings: Homo sapiens.
Assay type: functional, cell-based
Description: SANGER: Inhibition of human NCI-H1792 cell growth in a cell viability assay.

Question: Which IC50 does the source give for CN(NC(=O)CC(=O)NN(C)C(=S)c1ccccc1)C(=S)c1ccccc1 [ELESCLOMOL] here?
Answer: > 200 nM

Each compound was assayed on RH-18 (assay: cells). Settings: Homo sapiens, Rh18.
Assay type: functional, cell-based
Description: SANGER: Inhibition of human RH-18 cell growth in a cell viability assay.

Question: How did the IC50 turn out when CN(NC(=O)CC(=O)NN(C)C(=S)c1ccccc1)C(=S)c1ccccc1 [ELESCLOMOL] was run?
Answer: 74.2 nM

Each compound was assayed on SCC-9 (assay: cells). Settings: Homo sapiens.
Assay type: functional, cell-based
Description: SANGER: Inhibition of human SCC-9 cell growth in a cell viability assay.

Question: With CN(NC(=O)CC(=O)NN(C)C(=S)c1ccccc1)C(=S)c1ccccc1 [ELESCLOMOL] as the compound, how does the IC50 read?
Answer: 121 nM

What follows are compounds tested on SW-620 (assay: cells). Settings: Homo sapiens.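 Also: growth inhibition of human SW-620 cells, measured by a cell viability assay.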
Assay type: functional, cell-based
Description: SANGER: Inhibition of human SW620 cell growth in a cell viability assay.

Question: Which IC50 does the source give for CN(NC(=O)CC(=O)NN(C)C(=S)c1ccccc1)C(=S)c1ccccc1 [ELESCLOMOL] here?
Answer: 40.7 nM

Each compound was assayed on SK-MEL3 (assay: cells). Settings: Homo sapiens.
Assay type: functional, cell-based, SK-MEL-3
Description: SANGER: Inhibition of human SK-MEL-3 cell growth in a cell viability assay.

Question: For CN(NC(=O)CC(=O)NN(C)C(=S)c1ccccc1)C(=S)c1ccccc1 [ELESCLOMOL], which IC50 is on record?
Answer: > 200 nM

Each compound was assayed on NCI-H1693 (assay: cells). Settings: Homo sapiens.
Assay type: functional, cell-based
Description: SANGER: Inhibition of human NCI-H1693 cell growth in a cell viability assay.

Question: For CN(NC(=O)CC(=O)NN(C)C(=S)c1ccccc1)C(=S)c1ccccc1 [ELESCLOMOL], which IC50 is on record?
Answer: 9.09 nM

These compounds were tested on BFTC-905 (assay: cells). Settings: Homo sapiens.
Assay type: functional, cell-based
Description: SANGER: Inhibition of human BFTC-905 cell growth in a cell viability assay.

Question: Which IC50 does the source give for CN(NC(=O)CC(=O)NN(C)C(=S)c1ccccc1)C(=S)c1ccccc1 [ELESCLOMOL] here?
Answer: 20.5 nM

Each compound was assayed on SNU-387 (assay: cells). Settings: Homo sapiens.
Assay type: functional, cell-based
Description: SANGER: Inhibition of human SNU-387 cell growth in a cell viability assay.

Question: With CN(NC(=O)CC(=O)NN(C)C(=S)c1ccccc1)C(=S)c1ccccc1 [ELESCLOMOL] as the compound, how does the IC50 read?
Answer: 9.49 nM

What follows are compounds tested on UACC-893 (assay: cells). Settings: Homo sapiens.
Assay type: functional, cell-based
Description: SANGER: Inhibition of human UACC-893 cell growth in a cell viability assay.

Question: Which IC50 does the source give for CN(NC(=O)CC(=O)NN(C)C(=S)c1ccccc1)C(=S)c1ccccc1 [ELESCLOMOL] here?
Answer: > 200 nM

These compounds were tested on OAW-42 (assay: cells). Settings: Homo sapiens.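 Also: growth inhibition of OAW-42 cells, read out with a cell viability assay.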
Assay type: functional, cell-based
Description: SANGER: Inhibition of human OAW-42 cell growth in a cell viability assay.

Question: How did the IC50 turn out when CN(NC(=O)CC(=O)NN(C)C(=S)c1ccccc1)C(=S)c1ccccc1 [ELESCLOMOL] was run?
Answer: 81.6 nM

The compounds below were run on D-542MG (assay: cells). Settings: Homo sapiens.
Assay type: functional, cell-based
Description: SANGER: Inhibition of human D-542MG cell growth in a cell viability assay.

Question: For CN(NC(=O)CC(=O)NN(C)C(=S)c1ccccc1)C(=S)c1ccccc1 [ELESCLOMOL], which IC50 is on record?
Answer: > 200 nM

The compounds below were run on NBsusSR (assay: cells). Settings: Homo sapiens.
Assay type: functional, cell-based
Description: SANGER: Inhibition of human NBsusSR cell growth in a cell viability assay.

Question: Which IC50 does the source give for CN(NC(=O)CC(=O)NN(C)C(=S)c1ccccc1)C(=S)c1ccccc1 [ELESCLOMOL] here?
Answer: 3.13 nM

The compounds below were run on NCI-H358 (assay: cells). Settings: Homo sapiens.
Assay type: functional, cell-based
Description: SANGER: Inhibition of human NCI-H358 cell growth in a cell viability assay.

Question: How did the IC50 turn out when CN(NC(=O)CC(=O)NN(C)C(=S)c1ccccc1)C(=S)c1ccccc1 [ELESCLOMOL] was run?
Answer: 13.6 nM

The compounds below were run on ECC10 (assay: cells). Settings: Homo sapiens.
Assay type: functional, cell-based
Description: SANGER: Inhibition of human ECC10 cell growth in a cell viability assay.

Question: With CN(NC(=O)CC(=O)NN(C)C(=S)c1ccccc1)C(=S)c1ccccc1 [ELESCLOMOL] as the compound, how does the IC50 read?
Answer: > 200 nM

What follows are compounds tested on NCI-H727 (assay: cells). Settings: Homo sapiens.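 Also: growth inhibition of human NCI-H727 cells, read out with a cell viability assay.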
Assay type: functional, cell-based
Description: SANGER: Inhibition of human NCI-H727 cell growth in a cell viability assay.

Question: With CN(NC(=O)CC(=O)NN(C)C(=S)c1ccccc1)C(=S)c1ccccc1 [ELESCLOMOL] as the compound, how does the IC50 read?
Answer: > 200 nM

Each compound was assayed on OVCAR-3 (assay: cells). Settings: Homo sapiens.
Assay type: functional, cell-based
Description: SANGER: Inhibition of human OVCAR-3 cell growth in a cell viability assay.

Question: Which IC50 does the source give for CN(NC(=O)CC(=O)NN(C)C(=S)c1ccccc1)C(=S)c1ccccc1 [ELESCLOMOL] here?
Answer: 6.2 nM

These compounds were tested on AU565 (assay: cells). Settings: Homo sapiens.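 Also: cell viability assay measuring growth inhibition of human AU565 cells.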
Assay type: functional, cell-based
Description: SANGER: Inhibition of human AU565 cell growth in a cell viability assay.

Question: Which IC50 does the source give for CN(NC(=O)CC(=O)NN(C)C(=S)c1ccccc1)C(=S)c1ccccc1 [ELESCLOMOL] here?
Answer: 59.1 nM

What follows are compounds tested on MCF7 (assay: cells). Settings: Homo sapiens.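 Also: growth inhibition of human MCF7 cells, read out with a cell viability assay.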
Assay type: functional, cell-based
Description: SANGER: Inhibition of human MCF7 cell growth in a cell viability assay.

Question: How did the IC50 turn out when CN(NC(=O)CC(=O)NN(C)C(=S)c1ccccc1)C(=S)c1ccccc1 [ELESCLOMOL] was run?
Answer: 31.4 nM

These compounds were tested on LU-135 (assay: cells). Settings: Homo sapiens.
Assay type: functional, cell-based
Description: SANGER: Inhibition of human LU-135 cell growth in a cell viability assay.

Question: With CN(NC(=O)CC(=O)NN(C)C(=S)c1ccccc1)C(=S)c1ccccc1 [ELESCLOMOL] as the compound, how does the IC50 read?
Answer: > 200 nM

These compounds were tested on SW837 (assay: cells). Settings: Homo sapiens.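 Also: growth inhibition of SW837 cells, determined with a cell viability assay.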
Assay type: functional, cell-based
Description: SANGER: Inhibition of human SW837 cell growth in a cell viability assay.

Question: How did the IC50 turn out when CN(NC(=O)CC(=O)NN(C)C(=S)c1ccccc1)C(=S)c1ccccc1 [ELESCLOMOL] was run?
Answer: 107 nM
